Measurements reported in patent publication US20090286827A1, “NOVEL BI-ARYL AMINES” (priority 2006, published 2009).

Target: T1, mGluR5 (Homo sapiens, UniProt P41594)
T1 construct: expressed in transfected cells
Experiment: inhibition of the glutamate induced elevation of intracellular Ca2+-concentration
Assay type: cell-based
Conditions: inhibition of glutamate induced elevation of intracellular Ca2+ at a concentration of 10 μM; read-out: mGluR5 Activity inh. at 10 μM [%]
Source text: This can be determined in vitro for example at recombinant human metabotropic glutamate receptors, especially PLC-coupled subtypes thereof such as mGluR5, using different procedures like, for example, measurement of the inhibition of the agonist induced elevation of intracellular Ca^2+ concentration in accordance with L. P. Daggett et al., Neuropharm. Vol. 34, pages 871-886 (1995), P. J. Flor et al., J. Neurochem. Vol. 67, pages 58-63 (1996) or by determination to what extent the agonist induced elevation of the inositol phosphate turnover is inhibited as described by T. Knoepfel et al., Eur. J. Pharmacol. Vol. 288, pages 389-392 (1995), L. P. Daggett et al., Neuropharm. Vol. 34, pages 871-886 (1995) and references cited therein. Isolation and expression of human mGluR subtypes are described in U.S. Pat. No. 5,521,297. Selected agents of the invention show IC50 values for the inhibition of the agonist (e.g. glutamate or quisqualate) induced elevation of intracellular Ca2+ concentration or the agonist (e.g. glutamate or quisqualate) induced inositol phosphate turnover, measured in recombinant cells expressing hmGluR5a of about 1 nM to about 50 μM.
Activity of compounds of the present invention was examined by measurement of the inhibition of the glutamate induced elevation of intracellular Ca^2+-concentration following similar methods than those described in L. P. Daggett et al., Neuropharm. Vol. 34, pages 871-886 (1995), P. J. Flor et al., J. Neurochem. Vol. 67, pages 58-63 (1996).
The table below represents percentages of inhibition of the glutamate induced elevation of intracellular Ca^2+-concentration at a concentration of 10 μM.

T1 sequence (P41594 21-1180 isoform P41594-2 limits assumed): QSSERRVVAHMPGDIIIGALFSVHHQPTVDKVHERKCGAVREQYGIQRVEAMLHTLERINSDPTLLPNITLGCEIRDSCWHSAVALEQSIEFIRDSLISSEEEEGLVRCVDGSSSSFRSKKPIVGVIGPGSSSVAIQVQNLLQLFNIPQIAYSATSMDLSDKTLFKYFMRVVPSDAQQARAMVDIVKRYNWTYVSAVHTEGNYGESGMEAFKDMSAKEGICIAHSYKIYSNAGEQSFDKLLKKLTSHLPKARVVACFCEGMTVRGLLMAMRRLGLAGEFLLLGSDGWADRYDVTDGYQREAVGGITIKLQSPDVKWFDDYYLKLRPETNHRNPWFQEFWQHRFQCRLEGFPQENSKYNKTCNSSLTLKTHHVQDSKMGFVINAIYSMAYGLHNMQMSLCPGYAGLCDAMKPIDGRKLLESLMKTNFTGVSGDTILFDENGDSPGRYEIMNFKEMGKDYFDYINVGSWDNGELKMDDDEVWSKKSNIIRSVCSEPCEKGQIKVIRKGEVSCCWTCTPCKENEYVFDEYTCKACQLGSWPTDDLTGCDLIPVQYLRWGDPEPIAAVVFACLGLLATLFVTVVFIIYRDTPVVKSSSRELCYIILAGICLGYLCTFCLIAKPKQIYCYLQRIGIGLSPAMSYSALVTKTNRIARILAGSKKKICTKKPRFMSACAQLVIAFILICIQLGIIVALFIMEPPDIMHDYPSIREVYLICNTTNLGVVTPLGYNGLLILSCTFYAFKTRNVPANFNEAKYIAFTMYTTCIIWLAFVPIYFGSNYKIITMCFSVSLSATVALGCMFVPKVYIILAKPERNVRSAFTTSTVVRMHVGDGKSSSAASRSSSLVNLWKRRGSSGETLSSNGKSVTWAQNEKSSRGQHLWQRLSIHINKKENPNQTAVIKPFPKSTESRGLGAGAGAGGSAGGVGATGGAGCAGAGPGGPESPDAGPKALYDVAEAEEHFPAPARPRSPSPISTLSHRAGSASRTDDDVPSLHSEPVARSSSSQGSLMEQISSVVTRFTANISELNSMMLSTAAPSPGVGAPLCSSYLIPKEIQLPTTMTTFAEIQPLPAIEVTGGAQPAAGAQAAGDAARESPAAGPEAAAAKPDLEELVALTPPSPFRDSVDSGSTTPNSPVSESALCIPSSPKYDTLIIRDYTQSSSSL

`CCn1cc(C)nc1-c1cnc(Nc2ccc(Cl)cc2)c(Cl)c1` [Compound 32, [3-Chloro-5-(1-ethyl-4-methyl-1H-imidazol-2-yl)-pyridin-2-yl]-(4-chloro-phenyl)-amine] was tested, and the inhibition at 10 µM was 95%.

`CCCn1cc(C)nc1-c1cnc(Nc2ccc(Cl)cc2)c(Cl)c1` [Compound 33, [3-Chloro-5-(4-methyl-1-propyl-1H-imidazol-2-yl)-pyridin-2-yl]-(4-chloro-phenyl)-amine] gave an inhibition at 10 µM of 100%.

For `CCCn1cc(CC)nc1-c1cnc(Nc2ccc(Cl)cc2)c(Cl)c1` [Compound 34, [3-Chloro-5-(4-ethyl-1-propyl-1H-imidazol-2-yl)-pyridin-2-yl]-(4-chloro-phenyl)-amine], the inhibition at 10 µM was 100%.

`CCCCn1cc(CC)nc1-c1cnc(Nc2ccc(Cl)cc2)c(Cl)c1` [Compound 35, [5-(1-Butyl-4-ethyl-1H-imidazol-2-yl)-3-chloro-pyridin-2-yl]-(4-chloro-phenyl)-amine] gave an inhibition at 10 µM of 100%.

`CCc1cn(CC)c(-c2cnc(Nc3ccc(Cl)cc3)c(Cl)c2)n1` [Compound 36, [3-Chloro-5-(1,4-diethyl-1H-imidazol-2-yl)-pyridin-2-yl]-(4-chloro-phenyl)-amine] gave an inhibition at 10 µM of 78%.

Compound `CC(C)(C)c1cnc(-c2cnc(Nc3ccc(Cl)cc3)c(Cl)c2)[nH]1` [Compound 37, [5-(5-tert-Butyl-1H-imidazol-2-yl)-3-chloro-pyridin-2-yl]-(4-chloro-phenyl)-amine] has an inhibition at 10 µM of 95%.

`Cn1cc(C(C)(C)C)nc1-c1cnc(Nc2ccc(Cl)cc2)c(Cl)c1` [Compound 38, [5-(4-tert-Butyl-1-methyl-1H-imidazol-2-yl)-3-chloro-pyridin-2-yl]-(4-chloro-phenyl)-amine] showed an inhibition at 10 µM of 86%.

For `CCn1cc(C(C)(C)C)nc1-c1cnc(Nc2ccc(Cl)cc2)c(Cl)c1` [Compound 39, [5-(4-tert-Butyl-1-ethyl-1H-imidazol-2-yl)-3-chloro-pyridin-2-yl]-(4-chloro-phenyl)-amine], the inhibition at 10 µM was 97%.

Compound `CCCn1cc(C(C)(C)C)nc1-c1cnc(Nc2ccc(Cl)cc2)c(Cl)c1` [Compound 40, [5-(4-tert-Butyl-1-propyl-1H-imidazol-2-yl)-3-chloro-pyridin-2-yl]-(4-chloro-phenyl)-amine] has an inhibition at 10 µM of 100%.

`CCCCn1cc(C(C)(C)C)nc1-c1cnc(Nc2ccc(Cl)cc2)c(Cl)c1` [Compound 41, [5-(1-Butyl-4-tert-butyl-1H-imidazol-2-yl)-3-chloro-pyridin-2-yl]-(4-chloro-phenyl)-amine] was tested, and the inhibition at 10 µM was 79%.

Work on `CCCn1c(-c2cnc(Nc3ccc(Cl)cc3)c(Cl)c2)nc(C)c1C` [Compound 42, [3-Chloro-5-(4,5-dimethyl-1-propyl-1H-imidazol-2-yl)-pyridin-2-yl]-(4-chloro-phenyl)-amine] yielded an inhibition at 10 µM of 94%.

Work on `CCc1c(C)n(CC)c(-c2cnc(Nc3ccc(Cl)cc3)c(Cl)c2)[n+]1CC` [Compound 43, 2-[5-Chloro-6-(4-chloro-phenylamino)-pyridin-3-yl]-1,3,5-triethyl-4-methyl-3H-imidazol-1-ium iodide] yielded an inhibition at 10 µM of 37%.

Work on `CCCCc1cnnn1-c1cnc(Nc2ccc(Cl)cc2)c(Cl)c1` [Compound 44, [5-(5-Butyl-[1,2,3]triazol-1-yl)-3-chloro-pyridin-2-yl]-(4-chloro-phenyl)-amine] yielded an inhibition at 10 µM of 98%.

With `CCCc1cnnn1-c1cnc(Nc2ccc(Cl)cc2)c(Cl)c1` [Compound 45, (4-Chloro-phenyl)-[3-chloro-5-(5-propyl-[1,2,3]triazol-1-yl)-pyridin-2-yl]-amine] the inhibition at 10 µM was 89%.

`CCCc1nn[nH]c1-c1cnc(Nc2ccc(Cl)cc2)c(Cl)c1` [Compound 46, (4-Chloro-phenyl)-[3-chloro-5-(5-propyl-3H-[1,2,3]triazol-4-yl)-pyridin-2-yl]-amine] gave an inhibition at 10 µM of 68%.

`CC(C)c1nccn1-c1cnc(Nc2ccc(Cl)cc2)c(Cl)c1` [Compound 47, [3-Chloro-5-(2-isopropyl-imidazol-1-yl)-pyridin-2-yl]-(4-chloro-phenyl)-amine] gave an inhibition at 10 µM of 34%.

With `Cc1cncn1-c1cnc(Nc2ccc(Cl)cc2)c(Cl)c1` [Compound 48, [3-Chloro-5-(5-methyl-imidazol-1-yl)-pyridin-2-yl]-(4-chloro-phenyl)-amine] the inhibition at 10 µM was 32%.

In the case of `Cc1cn(-c2cnc(Nc3ccc(Cl)cc3)c(Cl)c2)cn1` [Compound 49, [3-Chloro-5-(4-methyl-imidazol-1-yl)-pyridin-2-yl]-(4-chloro-phenyl)-amine], the inhibition at 10 µM is reported as 35%.
